The source of these data is publication PMC10586506 (Drug Metabolism and Disposition, 2023).

Counter-ions that a name gives are not always drawn. Like-named read-outs stand apart in the source and are kept apart here.

The test system of data set [1] is human OCT1. The settings on record: ref Nguyen et al., 2021, cited from earlier work; for IC50: read-out: IC50 OCT1, extract normalized to berberine.
The target in data set [2] is T1, human PMAT (Homo sapiens, UniProt Q7RTT9).
T1 sequence (Q7RTT9 1-530): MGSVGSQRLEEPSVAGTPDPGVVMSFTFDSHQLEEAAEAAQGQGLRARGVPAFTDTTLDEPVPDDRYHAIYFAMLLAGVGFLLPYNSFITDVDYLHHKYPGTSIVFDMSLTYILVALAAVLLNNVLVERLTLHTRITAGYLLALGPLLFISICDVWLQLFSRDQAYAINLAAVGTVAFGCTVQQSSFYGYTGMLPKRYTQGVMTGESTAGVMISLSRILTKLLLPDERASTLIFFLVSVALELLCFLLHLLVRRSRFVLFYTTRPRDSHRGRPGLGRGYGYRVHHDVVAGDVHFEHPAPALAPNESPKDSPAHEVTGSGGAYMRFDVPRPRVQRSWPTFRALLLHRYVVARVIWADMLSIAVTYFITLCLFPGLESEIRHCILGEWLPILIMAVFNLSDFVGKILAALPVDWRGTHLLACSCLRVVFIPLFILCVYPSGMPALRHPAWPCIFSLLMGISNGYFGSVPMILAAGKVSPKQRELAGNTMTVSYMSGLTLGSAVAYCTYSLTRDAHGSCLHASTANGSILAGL
As to the kind of experiment: PMAT inhibition in HEK293-LV cells overexpressing the transporter. The data set is classed as cell-based. The note with it: for inhibition at 10 µM / inhibition at 100 µM: read-out: PMAT (%) percent inhibition of transporter activity.

Data set [3] has as its target T2, human THTR2 (Homo sapiens, UniProt Q9BZV2).
T2 sequence (Q9BZV2 1-496): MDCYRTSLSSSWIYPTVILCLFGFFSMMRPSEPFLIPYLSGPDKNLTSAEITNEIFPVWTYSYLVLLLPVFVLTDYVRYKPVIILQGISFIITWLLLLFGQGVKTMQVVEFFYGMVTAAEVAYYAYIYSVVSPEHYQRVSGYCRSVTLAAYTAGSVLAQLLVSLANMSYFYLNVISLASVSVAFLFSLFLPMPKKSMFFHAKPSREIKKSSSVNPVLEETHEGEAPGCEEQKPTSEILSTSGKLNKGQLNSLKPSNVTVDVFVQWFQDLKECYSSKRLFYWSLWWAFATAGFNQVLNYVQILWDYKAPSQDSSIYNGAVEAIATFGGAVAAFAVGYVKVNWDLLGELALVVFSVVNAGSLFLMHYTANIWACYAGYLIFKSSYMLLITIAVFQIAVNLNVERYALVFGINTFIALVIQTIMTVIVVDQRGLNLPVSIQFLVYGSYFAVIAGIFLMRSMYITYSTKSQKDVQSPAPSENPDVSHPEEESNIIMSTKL
As to the kind of experiment: THTR2 inhibition in HEK293-LV cells overexpressing the transporter. The data set is classed as cell-based. The note with it: for inhibition at 10 µM / inhibition at 100 µM: read-out: THTR2 (%) percent inhibition of transporter activity.

For data set [4], the target named is T3, human OCT3 (Homo sapiens, UniProt O75751).
T3 sequence (O75751 1-556): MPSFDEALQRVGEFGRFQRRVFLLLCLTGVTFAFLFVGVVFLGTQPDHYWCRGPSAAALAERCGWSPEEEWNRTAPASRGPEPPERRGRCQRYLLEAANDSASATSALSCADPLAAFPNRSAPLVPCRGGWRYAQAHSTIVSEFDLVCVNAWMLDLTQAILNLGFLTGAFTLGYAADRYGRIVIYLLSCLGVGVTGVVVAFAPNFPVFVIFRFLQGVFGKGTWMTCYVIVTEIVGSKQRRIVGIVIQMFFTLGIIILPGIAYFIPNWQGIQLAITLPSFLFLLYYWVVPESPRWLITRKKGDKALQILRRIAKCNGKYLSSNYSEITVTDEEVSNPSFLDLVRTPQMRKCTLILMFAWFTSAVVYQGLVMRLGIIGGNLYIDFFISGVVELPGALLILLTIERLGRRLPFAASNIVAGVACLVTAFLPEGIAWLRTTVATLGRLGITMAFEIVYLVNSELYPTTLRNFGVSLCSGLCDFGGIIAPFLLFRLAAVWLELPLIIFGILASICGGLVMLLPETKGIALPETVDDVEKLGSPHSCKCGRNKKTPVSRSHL
As to the kind of experiment: OCT3 inhibition in HEK293-LV cells overexpressing the transporter. In kind it is cell-based. The note with it: for inhibition at 10 µM / inhibition at 100 µM: read-out: OCT3 (%) percent inhibition of transporter activity.

Data set [5] concerns Caco-2 cell monolayers. The note with it: cited from earlier work.
Data set [6] can be described thus: Oral metformin/oral inhibitor pharmacokinetic study in mice. The settings on record: for decrease in geometric mean metformin Cmax relative to vehicle: oral metformin 10 mg/kg with oral test article; for effect on metformin pharmacokinetics: oral metformin with oral test article.
The conditions of data set [7]: humans, single 2.7 g dose of goldenseal; ref Gupta et al., 2015; cited from earlier work.
For data set [8] the following is noted: humans; ref Nguyen et al., 2021; cited from earlier work.

Usually inhibition stands for the change of the read-out against control, counted positive when it falls. Turning to `CN1CCc2cc3c(cc2C1O)OCO3` (stereo not drawn) [Hydrastinine, Hydrastinine chloride monohydrate], in data set [1], the “inhibition of OCT1 (in words)” value is on record as “did not inhibit”. For the same molecule, in data set [2], the “inhibition of PMAT (in words)” value was “did not inhibit”, the inhibition at 10 µM turned out to be 11% and the inhibition at 100 µM is 43%. Besides, in data set [3], the “inhibition of THTR2 (in words)” value is “did not inhibit”, the inhibition at 10 µM turned out to be 2% and the inhibition at 100 µM stood at 19%. For the same molecule, in data set [4], the “inhibition of OCT3 (in words)” value is recorded as “did not inhibit”, the inhibition at 10 µM was -5% and the inhibition at 100 µM is -3%.

Take `CN(C)C(=N)N=C(N)N` [metformin, Metformin hydrochloride salt]: in data set [5] (ref Han et al., 2015), the “percent contribution of OCT1 to metformin uptake” value is recorded as 25%, the “percent contribution of PMAT to metformin uptake” value was 20%, the “percent contribution of SERT to metformin uptake” value is 20% and the “percent contribution of choline transporter to metformin uptake” value is reported as 15%. Further, in data set [5] (ref Han et al., 2015), the “percent contribution of passive diffusion to metformin uptake” value is 20%. In addition, in data set [5] (ref Shirasaka et al., 2022), the “percent contribution of OCT3 to metformin uptake” value is listed as 10%, the “percent contribution of PMAT to metformin uptake” value was 10%, the “percent contribution of SERT to metformin uptake” value was 2% and the “percent contribution of THTR2 to metformin uptake” value is on record as 22%. In addition, in data set [5] (ref Shirasaka et al., 2022), the “percent contribution of other (unidentified) transporters to metformin uptake” value is recorded as 1% and the “percent contribution of passive diffusion to metformin uptake” value is on record as 55%.

One may read the IC50 as the point on the concentration scale where inhibition reaches its midpoint. In general, Cmax refers to the highest concentration seen after dosing. Take `COc1ccc2cc3[n+](cc2c1OC)CCc1cc2c(cc1-3)OCO2` [Berberine, Berberine chloride hydrate]: in data set [1], the IC50 is 19 µM and the “inhibition of OCT1 (in words)” value is recorded as “inhibited”. In data set [2], the “inhibition of PMAT (in words)” value was “inhibited”, the inhibition at 10 µM is 8% and the inhibition at 100 µM was 71%. In data set [6], the “decrease in geometric mean metformin Cmax relative to vehicle” value is listed as “no effect” and the “effect on metformin pharmacokinetics” value is “no effect”. In data set [3], the “inhibition of THTR2 (in words)” value was “inhibited”, the inhibition at 10 µM is -2% and the inhibition at 100 µM was 43%. In addition, in data set [4], the “inhibition of OCT3 (in words)” value is listed as “inhibited”, the inhibition at 10 µM is 55% and the inhibition at 100 µM was determined as 95%. Further, the “IC50 of berberine alone relative to goldenseal extract” value in data set [4] (across OCT3, PMAT and THTR2, fold higher) is 2.8- to 7.4 fold. Moreover, the Cmax in data set [7] is 470 nM. The “estimated intestinal luminal inhibitor concentration” value in data set [8] is 354 µM.

As for `COc1ccc2c(c1OC)C(=O)O[C@@H]2[C@H]1c2cc3c(cc2CCN1C)OCO3` [(–)-β-hydrastine, (–)-β-Hydrastine], in data set [1], the IC50 was 6.6 µM and the “inhibition of OCT1 (in words)” value is on record as “only inhibited OCT1”. Besides, in data set [2], the inhibition at 10 µM was -9% and the inhibition at 100 µM amounted to 37%. Moreover, in data set [6], the “decrease in geometric mean metformin Cmax relative to vehicle” value is recorded as “no effect” and the “effect on metformin pharmacokinetics” value was “no effect”. In data set [3], the inhibition at 10 µM worked out at 7% and the inhibition at 100 µM was -4%. In data set [4], the inhibition at 10 µM is 3% and the inhibition at 100 µM was determined as 24%. Besides, the Cmax in data set [7] is 1.75 nM.
